The values that follow come from ChEMBL document CHEMBL1201862, “PubChem BioAssay data set” (2004).

Among the test systems are 786-0; A549; DU-145; HCT-15; HOP-92; HT-29; K562; MCF7; MDA-MB-231; MDA-N; Malme-3M; OVCAR-3; OVCAR-8; PC-3; RPMI-8226; RXF 393; SF-295; SF-539; SK-MEL-2.
Holding throughout (assay): growth of human tumour cells (NCI), 48 h

Structures are written as SMILES.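 Step 1: Grow cells in 96-well plates. Step 2: Expose to compound for 48 hours at 5 concentrations. Step 3: Interpolate endpoints linearly; if unreached, use highest concentration. Abbreviation: GI50, concentration required for 50% inhibition of growth.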 Activity calls are given as the source filed them. No stated cut-off is given here; in the data, active = GI50 up to about 1.1 µM and inactive = higher.

With `Cc1ccc2occ/c(=N\Nc3ccccc3)c2c1`, the GI50 with 786-0 was 21.2 µM (inactive); in the assay with A549, 57 µM (inactive); in the assay with DU-145 it was 37.8 µM (inactive); in the assay on HCT-15, 39.9 µM; with HOP-92, 19.5 µM (inactive); with HT-29 it was 23.9 µM (inactive). Further, the GI50 with K562 is 25.2 µM (inactive); in the assay with MCF7 it was 40.2 µM (inactive); in the assay on MDA-MB-231 it was 88.5 µM (inactive); with MDA-N it was 65.9 µM (inactive); with Malme-3M, 29.5 µM (inactive); in the assay on OVCAR-3 it was 60.1 µM (inactive). Also, the GI50 with OVCAR-8 was 72.9 µM (inactive); in the assay with PC-3 it was 63.1 µM (inactive); with RPMI-8226 it was 25.1 µM (inactive); with RXF 393, 21.8 µM (inactive); in the assay with SF-295, 32.2 µM (inactive); in the assay on SF-539, > 100 µM (inactive). The GI50 with SK-MEL-2 was > 100 µM (inactive).
`C=CCSc1nc2ccccc2c(=O)n1Cc1ccco1`: the GI50 in the assay on 786-0 was > 100 µM (inactive); in the assay on A549 it was 78.9 µM (inactive); in the assay on DU-145, > 100 µM (inactive); with HCT-15 it was 64.1 µM; in the assay with HOP-92 it was 86.3 µM (inactive); in the assay on HT-29, 50.1 µM (inactive). Further, the GI50 with K562 is > 100 µM (inactive); in the assay on MCF7 it was 52.2 µM (inactive); with MDA-MB-231 it was > 100 µM (inactive); in the assay with MDA-N, > 100 µM (inactive); in the assay on Malme-3M, > 100 µM (inactive); with OVCAR-3, 68.7 µM (inactive). Moreover, the GI50 in the assay with OVCAR-8 was > 100 µM (inactive); in the assay on PC-3, > 100 µM (inactive); with RPMI-8226, 37.4 µM (inactive); in the assay with RXF 393 it was 35.6 µM (inactive); in the assay with SF-295, > 100 µM (inactive); with SF-539, > 100 µM (inactive). In the assay on SK-MEL-2, the GI50 was > 100 µM (inactive).
Regarding `CC(O)=NC(Cc1ccc2ccccc2c1)C(O)=NC(Cc1ccc(Cl)cc1)C(O)=NC(Cc1c[nH]c2ccccc12)C(O)=NC(CO)C(O)=NC(Cc1ccc(O)cc1)C(O)=NC(CCCN=C(N)N)C(O)=NC(CC(C)C)C(O)=NC(CCCN=C(N)N)C(=O)N1CCCC1C(O)=NC(C)C(=N)O` (stereo unspecified), the GI50 in the assay with 786-0 was 35.8 µM (inactive); with A549, 42.6 µM (inactive); with DU-145, 26.5 µM (inactive); in the assay on HCT-15, 63 µM; in the assay on HOP-92, 35.5 µM (inactive); with HT-29, 35.5 µM (inactive). Also, the GI50 in the assay on K562 is > 100 µM (inactive); in the assay with MCF7, 43.8 µM (inactive); in the assay on MDA-MB-231, 59.7 µM (inactive); in the assay on MDA-N, 30.4 µM (inactive); with Malme-3M it was 99.5 µM (inactive); in the assay on OVCAR-3, > 100 µM (inactive). The GI50 in the assay with OVCAR-8 is 27.1 µM (inactive); with PC-3, 32.3 µM (inactive); with RPMI-8226, > 100 µM (inactive); in the assay on RXF 393 it was 37.1 µM (inactive); in the assay with SF-295, 27.9 µM (inactive); in the assay on SF-539, 36.6 µM (inactive). For the same compound, in the assay with SK-MEL-2, the GI50 was 13.4 µM (inactive).
`Oc1nc2nnc(COc3ccc(Cl)cc3Cl)n2nc1Cc1ccccc1`: the GI50 with 786-0 was 20.8 µM (inactive); with A549, 94.2 µM (inactive); in the assay with DU-145 it was > 100 µM (inactive); in the assay on HCT-15, greater than 100 µM; with HOP-92 it was 32.7 µM (inactive); with HT-29, > 100 µM (inactive). Further, the GI50 in the assay on K562 is > 100 µM (inactive); in the assay on MCF7 it was > 100 µM (inactive); with MDA-MB-231, 43.2 µM (inactive); in the assay on MDA-N, > 100 µM (inactive); in the assay with Malme-3M, > 100 µM (inactive); in the assay on OVCAR-3 it was 27.5 µM (inactive). The GI50 in the assay with OVCAR-8 was 26.1 µM (inactive); in the assay on PC-3, > 100 µM (inactive); in the assay on RPMI-8226, > 100 µM (inactive); with RXF 393 it was 21.5 µM (inactive); with SF-295 it was 32.3 µM (inactive); with SF-539, 20.1 µM (inactive). In addition, the GI50 with SK-MEL-2 is > 100 µM (inactive).
